# Reference: patent US20100168054A1, “Functionalized Beta 1,6 Glucosamine Disaccharides and Process for Their Preparation” (OM PHARMA, priority 2006, published 2010)
# “Also recorded” adds a separate entry of the source.
# Assays:
# Format in all cases: cell-based
# [1] = tested on: human peripheral blood mononuclear cells (PBMC); assay: IL-6 secretion by human PBMC (ELISA); conditions: for IL6: 24 h; for IL-6 secretion (in words): 1, 5, 20 μg/ml
# Method: (§1) Peripheral blood from healthy donors (Centre de transfusion, Hôpital Universitaire, Geneva) was centrifuged to get the buffy coat. The buffy coat was mixed with Hanks' balanced saline solution (HBSS, Sigma, Buchs, Switzerland), layered over Ficoll Paque Plus (Amersham Pharmacia) to 1.077 g/mL and centrifuged (2800 rpm, 20° C., 25 min). Cells harvested from the interphase were washed twice in HBSS at 800 rpm for 15 min at room temperature and the pelleted cells were resuspended in HBSS. The cell counts were performed using a Neubauer cell. All cell cultures were performed in RPMI-1640 medium supplemented with penicillin (100 U/mL), streptomycin (100 μg/mL), L-glutamine (2 mmol/L) and 10% fetal calf serum (FCS), all obtained from Sigma. For in vitro stimulation, the cells were cultured at a concentration of 1×10^6 viable cells/well.
# (§2) PBMC were incubated at 37° C. and under 5% CO2 atmosphere with the controls (see below) and with the products of the invention at 1, 5, and 20 μg/mL for IL-6, and at 0.2, 2, and 20 μg/mL for TNF-α secretion. Medium: RPMI alone.
# (§3) The surpernatants of the cultures were harvested after 24 h and the concentration of IL-6 and TNF-α were measured by an enzyme-linked immunosorbent assay (ELISA) (Human IL-6 and TNF-α ELISA Set, BD OptEIA, San Diego, USA), according to the manufacturer instructions. The detection limits were 10 and 8 pg/mL respectively.
# PBMC are incubated at 37° C. and under 5% CO2 atmosphere with the products of the invention.
# The supernatants of the cultures are harvested after 24 h and the concentration of IL-6 was measured by an enzyme-linked immunosorbent assay (ELISA) (Human IL-6 ELISA Set, BD OptEIA, San Diego, USA), according to the manufacturer instructions. The detection limit was 10 pg/mL.
# [2] = tested on: human peripheral blood mononuclear cells (PBMC); assay: TNF-α secretion by human PBMC (ELISA); conditions: for TNF-α: 24 h; for TNF-α induction (in words): 0.2, 2, 20 μg/ml
# Method: as §1, §2, §3
# TLR2 and CD14 = target: T1, TLR2 and CD14 (Homo sapiens, UniProt O60603); assay: HEK-TLR2-CD14 IL-8 secretion; conditions: for IL-8 secretion, mean: 24 h; for activation of IL-8 secretion via TLR2 (in words): HEK-TLR2-CD14
# T1 construct: expressed in transfected cells; host or cells: HEK (HEK-TLR2-CD14 cell line)
# Source text: (§4) The HEK293 cell line was chosen for its null or low basal expression of the TLR genes. These cells enable efficient monitoring of TLR activity using ELISA analysis such as IL-8 titration or reporter-based systems that monitor TLR-induced NF-κB activation. HEK-TLR2 cells (Invivogen, Toulouse, France) are engineered HEK293 cells stably transfected with multiple genes from the TLR2 pathway that include TLR2 and genes participating in the recognition or involved in the signaling cascade. These cells secrete IL-8 after TLR2 stimulation. The experiments were performed according to manufacturers' instructions. Briefly, 2×10^4 cells/well (200 ul RPMI) are incubated at 37° C. during 3 days (5% CO2). The medium is removed, and 90 ul RPMi+5% FCS is added to the wells Then the agonists and controls are added (10 ul/well). The cells return to the incubator for 24 hours. The supernatants are collected and the IL-8 ELISA is performed according to manufacturer's instructions These preliminary results were confirmed in another cell line expressing concomitantly TLR2 and CD14. The procedure used is similar to the one described just above.
# TLR4 = target: T2, TLR4 (Homo sapiens, UniProt O00206+Q9Y6Y9); assay: HEK-MD2-TLR4-CD14 IL-8 secretion; conditions: 24 h
# T2 construct: expressed in transfected cells; host or cells: HEK293
# Source text: as §4, with “instructions” for “instructions These preliminary results were confirmed in another cell line expressing concomitantly TLR2 and CD14. The procedure used is similar to the one described just above.”
# HEK-MD2-TLR4-CD14 are highly sensitive to LPS. They were obtained by stable transfection of HEK293 cells with the TLR4, MD2 and CD14 genes and an NF-κB-inducible reporter system. They secrete IL-8. We used the same experimental procedure as for the other HEK cell lines described above.
# T2 sequence (O00206 24-839): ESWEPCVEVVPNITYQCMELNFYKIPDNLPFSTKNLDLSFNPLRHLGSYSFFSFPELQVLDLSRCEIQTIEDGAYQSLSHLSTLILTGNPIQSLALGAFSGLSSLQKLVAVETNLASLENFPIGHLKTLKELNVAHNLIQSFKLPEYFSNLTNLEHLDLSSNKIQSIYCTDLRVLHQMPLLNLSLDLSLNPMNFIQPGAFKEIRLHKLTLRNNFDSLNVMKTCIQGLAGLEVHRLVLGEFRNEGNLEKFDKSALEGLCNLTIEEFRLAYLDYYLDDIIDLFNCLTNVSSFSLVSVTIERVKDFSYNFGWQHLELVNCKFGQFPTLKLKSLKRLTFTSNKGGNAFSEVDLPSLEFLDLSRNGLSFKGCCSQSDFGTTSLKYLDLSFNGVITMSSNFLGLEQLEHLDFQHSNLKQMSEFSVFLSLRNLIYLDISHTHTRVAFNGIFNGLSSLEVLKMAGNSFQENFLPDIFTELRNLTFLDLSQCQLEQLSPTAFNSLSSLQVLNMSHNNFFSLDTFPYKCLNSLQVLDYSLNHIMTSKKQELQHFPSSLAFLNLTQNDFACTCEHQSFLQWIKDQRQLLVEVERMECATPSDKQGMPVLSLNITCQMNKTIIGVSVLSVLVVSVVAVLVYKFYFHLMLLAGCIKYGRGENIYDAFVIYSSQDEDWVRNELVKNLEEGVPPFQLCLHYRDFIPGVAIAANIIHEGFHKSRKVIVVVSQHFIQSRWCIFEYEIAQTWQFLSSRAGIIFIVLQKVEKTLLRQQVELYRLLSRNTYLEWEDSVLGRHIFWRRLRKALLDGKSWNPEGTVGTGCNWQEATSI
# T2 sequence (Q9Y6Y9 17-160 limits assumed): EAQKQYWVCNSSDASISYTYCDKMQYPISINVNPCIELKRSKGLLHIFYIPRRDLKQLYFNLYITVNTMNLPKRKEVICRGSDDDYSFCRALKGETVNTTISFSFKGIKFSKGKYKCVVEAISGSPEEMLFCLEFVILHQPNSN
# T1 sequence (O60603 21-784): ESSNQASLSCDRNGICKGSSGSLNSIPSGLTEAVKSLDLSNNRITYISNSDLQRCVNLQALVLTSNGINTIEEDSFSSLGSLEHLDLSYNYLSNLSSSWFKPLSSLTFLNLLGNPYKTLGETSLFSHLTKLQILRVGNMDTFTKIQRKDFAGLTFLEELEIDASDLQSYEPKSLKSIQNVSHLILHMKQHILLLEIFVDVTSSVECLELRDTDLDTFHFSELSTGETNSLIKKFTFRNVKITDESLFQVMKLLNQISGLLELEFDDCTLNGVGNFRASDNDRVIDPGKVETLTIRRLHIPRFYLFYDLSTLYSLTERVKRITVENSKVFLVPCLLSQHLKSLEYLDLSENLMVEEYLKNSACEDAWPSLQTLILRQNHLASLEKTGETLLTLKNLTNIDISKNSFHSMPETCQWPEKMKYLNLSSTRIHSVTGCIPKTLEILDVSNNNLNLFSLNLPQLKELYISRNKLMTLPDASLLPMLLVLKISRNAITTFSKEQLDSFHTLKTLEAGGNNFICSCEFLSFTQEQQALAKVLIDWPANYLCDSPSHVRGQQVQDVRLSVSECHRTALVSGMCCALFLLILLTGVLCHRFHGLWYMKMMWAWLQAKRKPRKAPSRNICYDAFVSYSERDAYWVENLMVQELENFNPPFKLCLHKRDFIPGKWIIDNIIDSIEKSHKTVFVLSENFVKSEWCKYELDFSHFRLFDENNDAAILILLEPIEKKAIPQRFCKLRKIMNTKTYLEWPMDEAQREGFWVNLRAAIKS
"IL-8 secretion, mean (TLR2 and CD14; 14 ng/ml) [pg/mL]","IL-8 secretion, mean (TLR2 and CD14; 41 ng/ml) [pg/mL]","IL-8 secretion, mean (TLR2 and CD14; 124 ng/ml) [pg/mL]","IL-8 secretion, mean (TLR2 and CD14; 370 ng/ml) [pg/mL]","IL-8 secretion, mean (TLR2 and CD14; 1111 ng/ml) [pg/mL]","IL-8 secretion, mean (TLR2 and CD14; 3333 ng/ml) [pg/mL]","IL-8 secretion, mean (TLR2 and CD14; 10000 ng/ml) [pg/mL]","IL-8 secretion, mean (TLR4; 14 ng/ml) [pg/mL]","IL-8 secretion, mean (TLR4; 41 ng/ml) [pg/mL]","IL-8 secretion, mean (TLR4; 124 ng/ml) [pg/mL]","IL-8 secretion, mean (TLR4; 370 ng/ml) [pg/mL]","IL-8 secretion, mean (TLR4; 1111 ng/ml) [pg/mL]","IL-8 secretion, mean (TLR4; 3333 ng/ml) [pg/mL]",SMILES,IL6 ([1]; 1 μg/ml) [pg/mL],IL6 ([1]; 5 μg/ml) [pg/mL],IL6 ([1]; 20 μg/ml) [pg/mL],IL-6 secretion (in words) [1],TNF-α ([2]; 0.2 μg/ml) [pg/mL],TNF-α ([2]; 2 μg/ml) [pg/mL],TNF-α ([2]; 20 μg/ml) [pg/mL],also measured
0.10,0.03,0.17,0.19,0.52,1.49,4.24,1.83,1.79,1.65,1.64,1.58,1.62,"CCCCCCCCCCCC(=O)O[C@H](CCCCCCCCCCC)CC(=O)N[C@H]1[C@H](OC[C@H]2O[C@H](OCCOP(=O)(O)O)[C@H](NC(=O)C[C@H](O)CCCCCCCCCCC)[C@@H](O)[C@@H]2O)O[C@H](CO)[C@@H](OP(=O)(O)O)[C@@H]1O [compound 33, 2-(Phosphonooxy)ethyl-2-Deoxy-6-O-[2-deoxy-4-O-(dihydroxyphosphoryl)-2-[(R)-3-dodecanoyloxytetradecanoylamino]-β-D-glucopyranosyl]-2-[(R)-3-hydroxytetradecanoylamino]-α-D-glucopyranoside]",,,,,8.0,8.3,21,"activation of IL-8 secretion via TLR2 (in words) (TLR2 and CD14): able to activate IL-8 secretion via TLR2; IL-8 secretion, mean (TLR4; 10000 ng/ml): 1.78 pg/mL"
0.13,0.14,0.20,0.22,0.40,1.06,3.59,1.88,1.97,1.93,1.85,1.94,1.89,"CCCCCCCCCCCC(=O)O[C@H](CCCCCCCCCCC)CC(=O)N[C@H]1[C@H](OC[C@H]2O[C@H](OCCC)[C@H](NC(=O)C[C@H](O)CCCCCCCCCCC)[C@@H](O)[C@@H]2O)O[C@H](CO)[C@@H](OP(=O)(O)O)[C@@H]1O [compound 17, Propyl-2-Deoxy-6-O-[2-deoxy-4-O-(dihydroxyphosphoryl)-2-[(R)-3-dodecanoyloxytetradecanoylamino]-β-D-glucopyranosyl]-2-[(R)-3-hydroxytetradecanoylamino]-α-D-glucopyranoside]",171.6,447.6,752.4,able to induce IL-6 secretion,46,474,2114,"TNF-α induction (in words) [2]: induced high levels of TNF-α; activation of IL-8 secretion via TLR2 (in words) (TLR2 and CD14): able to activate IL-8 secretion via TLR2; IL-8 secretion, mean (TLR4; 10000 ng/ml): 1.70 pg/mL"

# The next lines start with the compound.
SMILES,"IL-8 secretion, mean (TLR2 and CD14; 14 ng/ml) [pg/mL]","IL-8 secretion, mean (TLR2 and CD14; 41 ng/ml) [pg/mL]","IL-8 secretion, mean (TLR2 and CD14; 124 ng/ml) [pg/mL]","IL-8 secretion, mean (TLR2 and CD14; 370 ng/ml) [pg/mL]","IL-8 secretion, mean (TLR2 and CD14; 1111 ng/ml) [pg/mL]","IL-8 secretion, mean (TLR2 and CD14; 3333 ng/ml) [pg/mL]","IL-8 secretion, mean (TLR2 and CD14; 10000 ng/ml) [pg/mL]","IL-8 secretion, mean (TLR4; 14 ng/ml) [pg/mL]","IL-8 secretion, mean (TLR4; 41 ng/ml) [pg/mL]","IL-8 secretion, mean (TLR4; 124 ng/ml) [pg/mL]","IL-8 secretion, mean (TLR4; 370 ng/ml) [pg/mL]","IL-8 secretion, mean (TLR4; 1111 ng/ml) [pg/mL]","IL-8 secretion, mean (TLR4; 3333 ng/ml) [pg/mL]",IL6 ([1]; 1 μg/ml) [pg/mL],IL6 ([1]; 5 μg/ml) [pg/mL],IL6 ([1]; 20 μg/ml) [pg/mL],IL-6 secretion (in words) [1],TNF-α ([2]; 0.2 μg/ml) [pg/mL],TNF-α ([2]; 2 μg/ml) [pg/mL],TNF-α ([2]; 20 μg/ml) [pg/mL],also measured
"CCCCCCCCCCCC(=O)O[C@H](CCCCCCCCCCC)CC(=O)N[C@H]1[C@H](OC[C@H]2O[C@H](O)[C@H](NC(=O)C[C@H](O)CCCCCCCCCCC)[C@@H](O)[C@@H]2O)O[C@H](CO)[C@@H](OP(=O)(O)O)[C@@H]1O [compound 16, 2-Deoxy-6-O-[2-deoxy-4-O-(dihydroxyphosphoryl)-2-[(R)-3-dodecanoyloxytetradecanoylamino]-β-D-glucopyranosy]-2-[(R)-3-hydroxytetradecanoylamino]-α-D-glucopyranose]",0.03,0.00,0.03,0.01,0.06,0.13,0.22,1.75,1.68,1.62,1.66,1.60,1.63,81.1,473.3,1348.2,able to induce IL-6 secretion,0.69,49,1705,"IL-6 induced ([1]; up to, doses to 20 μg/ml): up to 1348 μg/ml; TNF-α induction (in words) [2]: induced high levels of TNF-α; IL-8 secretion, mean (TLR4; 10000 ng/ml): 1.90 pg/mL"
"CCCCCCCCCCCC(=O)O[C@H](CCCCCCCCCCC)CC(=O)N[C@H]1[C@H](OC[C@H]2O[C@H](OCC(O)CO)[C@H](NC(=O)C[C@H](O)CCCCCCCCCCC)[C@@H](O)[C@@H]2O)O[C@H](CO)[C@@H](OP(=O)(O)O)[C@@H]1O (stereo partly drawn) [compound 19, 2,3-Dihydroxypropyl-2-Deoxy-6-O-[2-deoxy-4-O-(dihydroxyphosphoryl)-2-[(R)-3-dodecanoyloxytetradecanoylamino]-β-D-glucopyranosyl]-2-[(R)-3-hydroxytetradecanoylamino]-α-D-glucopyranoside]",0.05,0.03,0.11,0.10,0.17,0.26,0.65,1.69,1.64,1.56,1.67,1.73,1.88,44.5,95.9,199.1,able to induce IL-6 secretion,9.2,5.1,11.2,"IL-8 secretion, mean (TLR4; 10000 ng/ml): 1.96 pg/mL"
"CCCCCCCCCCCC(=O)O[C@H](CCCCCCCCCCC)CC(=O)NC1C(OCC2OC(OP(=O)(O)O)C(NC(=O)C[C@H](O)CCCCCCCCCCC)C(O)C2O)OC(CO)C(OP(=O)(O)O)C1O (stereo partly drawn) [compound 1b, 2-Deoxy-6-O-[2-deoxy-4-O-(dihydroxyphosphoryl)-2-[(R)-3-dodecanoyloxytetradecanoylamino]-β-D-glucopyranosyl]-2-[(R)-3-hydroxytetradecanoylamino]-α-D-glucopyranosyl dihydrogenophosphate]",,,,,,,,,,,,,,20.2,57.1,225.5,higher levels of IL-6; also recorded: able to induce IL-6 secretion,37,117,1105,TNF-α induction (in words) [2]: induced high levels of TNF-α
